One series in a line: MTT cytotoxicity assay. It is filed as cell-based. The note with it: HEK-293 cells (normal embryonic kidney), Human embryonic kidney (normal origin), read-out: IC50 of Cytotoxic Effect, Hek-293. The procedure: (§1) Human lung adenocarcinoma A549 cells, breast carcinoma MCF-7 cells, colon adenocarcinoma SW480 cells, neuroblastoma SH-SY5Y cells, and normal human embryonic kidney HEK-293 cells were obtained from the collection of the Institute of Cytology of the Russian Academy of Sciences (Saint Petersburg, Russia). Cultivation was performed in complete DMEM supplemented with glutamax, containing 10% fetal bovine serum and 1% penicillin-streptomycin. Cell cultures were incubated at 37 °C in a humidified atmosphere with 5% CO2.
(§2) The MTT assay was used to determine the cytotoxic profile of the synthesized compounds [128]. This method is based on the reduction of the tetrazolium salt (3-(4,5-dimethylthiazol-2-yl)-2,5-diphenyl tetrazolium bromide) by mitochondrial dehydrogenases of living cells to water-insoluble formazan crystals.
(§3) Cells in the exponential growth phase were seeded in 96-well culture plates. After 24 h, the test compounds were added to each well at various concentrations (from 0.01 to 100 µM) in triplicate. Control wells contained 1% DMSO solution.
(§4) Following a 24-h incubation with the compounds, 5 mg/mL MTT solution was added to each well, and the cells were incubated at 37 °C for 2 h. Then, the MTT solution was carefully removed, and 200 µL DMSO was added to dissolve the formed formazan crystals. Optical density was measured at a wavelength of 540 nm.
(§5) The efficacy indicators of the cytotoxic effect were IC50 values, representing compound concentrations causing 50% cell death in the sample.
A general note: Tetrazolium dyes change colour on reduction, which living cells bring about.

A further series has as its system A549. Briefly: MTT cytotoxicity assay. It counts as cell-based. The note with it: Human non-small cell lung cancer, 24 h, read-out: IC50 of Cytotoxic Effect, A549. The protocol: as §1, §2, §3, §4, §5
In a further series the test system is MCF-7. Briefly: MTT cytotoxicity assay. It is filed as cell-based. As to conditions: MCF7, Human breast adenocarcinoma cells, 24 h, read-out: IC50 of Cytotoxic Effect, MCF-7. The procedure:
as §1, §2, §3, §4, §5

Another series deals with SH-SY5Y. Briefly: MTT cytotoxicity assay. It counts as cell-based. The note with it: Human neuroblastoma, 24 h, read-out: IC50 of Cytotoxic Effect, SH-SY5Y. The protocol: as §1, §2, §3, §4, §5
A further series deals with SW-480. Description: MTT cytotoxicity assay. It is filed as cell-based. The note with it: SW480, Human colorectal cancer cells, 24 h, read-out: IC50 of Cytotoxic Effect, SW-480. The procedure: as §1, §2, §3, §4, §5
In the next series the test system is phosphofructokinase I. Briefly: Glycolytic enzyme activity in treated cells (colorimetric kit). The note with it: MCF-7 cells, 24-h incubation, 1/2 IC50. It is filed as cell-based, human.
In the next series the target is T1, pyruvate kinase M2 (Homo sapiens, UniProt P14618).
T1 construct: activity of rate-limiting glycolytic enzymes—hexokinase II, phosphofructokinase I, and pyruvate kinase M2—in MCF-7 cells; endogenous in cells
T1 sequence (P14618 whole entry): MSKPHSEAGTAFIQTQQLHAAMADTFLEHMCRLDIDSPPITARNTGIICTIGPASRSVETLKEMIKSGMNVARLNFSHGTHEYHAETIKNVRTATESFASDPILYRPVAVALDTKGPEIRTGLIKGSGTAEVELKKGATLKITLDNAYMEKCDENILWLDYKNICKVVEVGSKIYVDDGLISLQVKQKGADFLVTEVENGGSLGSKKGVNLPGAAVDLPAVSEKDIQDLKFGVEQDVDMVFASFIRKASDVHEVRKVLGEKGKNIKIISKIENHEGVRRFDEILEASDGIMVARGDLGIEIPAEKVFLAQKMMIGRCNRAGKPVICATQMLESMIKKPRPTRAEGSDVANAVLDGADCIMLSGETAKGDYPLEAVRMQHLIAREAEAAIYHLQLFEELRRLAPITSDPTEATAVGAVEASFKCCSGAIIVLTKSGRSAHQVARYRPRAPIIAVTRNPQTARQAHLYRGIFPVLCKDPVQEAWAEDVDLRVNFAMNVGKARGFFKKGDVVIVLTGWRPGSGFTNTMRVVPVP
The description is as above. It is filed as cell-based. The note with it: MCF-7 cells, 24-h incubation, 1/2 IC50.

For a further series, the system named is hexokinase II. The series is described as above. It counts as cell-based, human. The note with it: MCF-7 cells, 24-h incubation, 1/2 IC50.
Series [1] in a line: MTT cytotoxicity assay, whole cell line panel. It counts as cell-based. The note with it: human; summary of Table 1 over all five cell lines; read-out: IC50 values of the cytotoxic effect, range over the cell lines.
Protocol: The cytotoxic effects of the synthesized compounds were tested on the cell lines A549, MCF-7, SW-480, SH-SY5Y, and HEK-293.

What is called IC50 is the concentration that inhibits the measured activity by half.

Each structure is given as a SMILES string.

In the case of `O=C1C(Br)=C(Br)C(=O)c2c1nc1n2CCCC1` [Compound 6a, 7,8-dibromo-1,2,3,4-tetrahydropyrido[1,2-a]benzimidazole-6,9-dione], the 50% inhibitory concentration (IC50) at 24 h in “MTT cytotoxicity assay” amounted to 24.8 ± 0.42 µM. Moreover, the 50% inhibitory concentration (IC50) with A549 was 9.53 ± 0.59 µM; in the series with MCF-7 it was 8.81 ± 1.65 µM; in the series with SH-SY5Y, 9.66 ± 0.57 µM; in the series with SW-480, 9.11 ± 0.13 µM. For the same compound, in the series with phosphofructokinase I, the “Inhibition of enzyme activity, % of control: PFK1” value (“Inhibition … % of control: PFK1” below) is recorded as 9.75 % of control. Also, the “Inhibition of enzyme activity, % of control: PKM2” value (from here on “Inhibition … % of control: PKM2”) at pyruvate kinase M2 was 11.39 % of control.
For the compound `O=C1C(Br)=C(Cl)C(=O)c2c1nc1n2CCCC1` [Compound 6b, 7-bromo-8-chloro-1,2,3,4-tetrahydropyrido[1,2-a]benzimidazole-6,9-dione], in “MTT cytotoxicity assay”, the IC50 at 24 h was determined as 16.52 ± 0.15 µM. In addition, the IC50 came to 8.86 ± 3.19 µM in the series with A549, 7.79 ± 0.03 µM with MCF-7, 8.6 ± 0.06 µM in the series on SH-SY5Y and 10.5 ± 0.68 µM with SW-480. Also, in the series on hexokinase II, the “Inhibition of enzyme activity, % of control: HK2” value (shortened to “Inhibition … % of control: HK2”) is listed as 34.25 % of control. The “Inhibition … % of control: PFK1” value with phosphofructokinase I is on record as 7.49 % of control. The “Inhibition … % of control: PKM2” value at pyruvate kinase M2 is 14.85 % of control.
In the case of `O=C1C(Cl)=C(Br)C(=O)c2c1nc1n2CCCC1` [Compound 6c, 8-bromo-7-chloro-1,2,3,4-tetrahydropyrido[1,2-a]benzimidazole-6,9-dione], the IC50 at 24 h in “MTT cytotoxicity assay” is 16 ± 0.18 µM. For the same compound, the IC50 in the series with A549 was found to be 7.81 ± 0.64 µM; in the series on MCF-7 it was 8.35 ± 0.32 µM; in the series on SH-SY5Y, 9.49 ± 0.8 µM; in the series on SW-480, 10.22 ± 0.04 µM. In the series on hexokinase II, the “Inhibition … % of control: HK2” value is given as 36.01 % of control. In the series with phosphofructokinase I, the “Inhibition … % of control: PFK1” value is reported as 9.05 % of control. In addition, the “Inhibition … % of control: PKM2” value at pyruvate kinase M2 is 13.57 % of control.
For `O=C1C(Cl)=C(Cl)C(=O)c2c1nc1n2CCCC1` [Compound 6d, 7,8-dichloro-1,2,3,4-tetrahydropyrido[1,2-a]benzimidazole-6,9-dione], the IC50 at 24 h in the series “MTT cytotoxicity assay” came to 15.1 ± 0.38 µM. The concentration for half-maximal inhibition (IC50) is 7.76 ± 0.17 µM in the series on A549, 8.52 ± 0.23 µM in the series with MCF-7, 8.52 ± 0.49 µM in the series on SH-SY5Y and 8.68 ± 0.2 µM in the series with SW-480. The “Inhibition … % of control: PFK1” value in the series with phosphofructokinase I is given as 8.30 % of control. In addition, on pyruvate kinase M2, the “Inhibition … % of control: PKM2” value is 9.48 % of control.
On to `CC1CCn2c(nc3c2C(=O)C(Br)=C(Cl)C3=O)C1` (stereo not shown) [Compound 6e, 8-bromo-7-chloro-3-methyl-1,2,3,4-tetrahydropyrido[1,2-a]benzimidazole-6,9-dione], for which the IC50 at 24 h in “MTT cytotoxicity assay” was 20.2 ± 0.3 µM. Further, the IC50 with A549 is 8.23 ± 0.39 µM; in the series on MCF-7 it was 8.97 ± 0.05 µM; in the series on SH-SY5Y, 9.28 ± 0.15 µM; in the series with SW-480, 9.53 ± 0.51 µM. Moreover, the “Inhibition … % of control: HK2” value in the series with hexokinase II is recorded as 36.22 % of control. For the same compound, the “Inhibition … % of control: PFK1” value with phosphofructokinase I was 7.40 % of control. Besides, on pyruvate kinase M2, the “Inhibition … % of control: PKM2” value is reported as 8.36 % of control.
On to `O=C1C(Cl)=C(Br)C(=O)c2c1nc1n2CCOC1` [Compound 6f, 7-bromo-8-chloro-3,4-dihydro-1H-[1,4]oxazino[4,3-a]benzimidazole-6,9-dione], for which the half-inhibitory concentration (IC50) at 24 h in “MTT cytotoxicity assay” is 25.38 ± 0.02 µM. The IC50 with A549 is 11.3 ± 2.49 µM; in the series with MCF-7, 8.9 ± 0.19 µM; in the series on SH-SY5Y it was 10.8 ± 0.93 µM; in the series on SW-480 it was 8.44 ± 0.07 µM. Further, the “Inhibition … % of control: HK2” value in the series on hexokinase II was 30.83 % of control. Also, in the series with phosphofructokinase I, the “Inhibition … % of control: PFK1” value is 7.57 % of control. In addition, the “Inhibition … % of control: PKM2” value at pyruvate kinase M2 is reported as 12.09 % of control.
Regarding `CO[C@@]12[C@H](COC(N)=O)C3=C(C(=O)C(C)=C(N)C3=O)N1C[C@@H]1N[C@@H]12` [Mytomycin C, Mitomycin C, reference compound], the IC50 at 24 h was 6.59 ± 1.46 µM in “MTT cytotoxicity assay” and 8 to 20 µM in series [1]. Further, the half-inhibitory concentration (IC50) was found to be 18.1 ± 1.8 µM with A549, 20.4 ± 1.74 µM with MCF-7, 7.04 ± 0.02 µM in the series on SH-SY5Y and 11.3 ± 0.46 µM in the series on SW-480.

These data come from article PMC12610816, “New Dihalogenated Derivatives of Condensed Benzimidazole Diones Promotes Cancer Cell Death Through Regulating STAT3/HK2 Axis/Pathway” (Molecules, 2025).
